pIC50: −log10 of the molar value. Read-outs that look alike come from different tables or passages of the source.
Tests used:
NLRP3 inflammasome = biological target: T1, NLRP3 inflammasome (Homo sapiens, UniProt Q96P20); assay: NLRP3 inflammasome activation assay in LPS-primed, nigericin-stimulated PBMCs, IL-1β release; format: cell-based; conditions: PBMC, LPS priming, 10 μM nigericin; for pIC50: read-out: PMBC IL-1β IC50; for IC50: PMBC IL-1β IC50 (μM)
T1 construct: freshly isolated from human peripheral blood from healthy donors; StemCells Technologies; host or cells: primary human PBMCs
Method: Some of the following assays were used to determine the inhibitory activity of the compounds on the NLRP3 inflammasome using a common inflammasome activation stimuli-nigericin.
(§1) Human peripheral blood mononuclear cells (PBMCs), consisting of lymphocytes (T, B and NK cells), monocytes and dendritic cells, are freshly isolated from human peripheral blood from healthy donors. Cells are obtained through an IRB approved donor program by iXCells Biotechnologies where all the donors are tested for bacterial and viral infections. Cells are purified from peripheral blood using ficoll gradient centrifugation.
(§2) Fresh or cryopreserved PMBCs are seeded in V-bottom 96-well plate at 0.5-1×10^5 cells per well and incubated overnight at 37° C. with 5% CO2 in RPMI 1640 medium with GlutaMAX supplement, 4.5 g/L D-glucose, 10% Fetal Bovine Serum (FBS), […] Sodium Pyruvate, 1% Penicillin/Streptomycin, 10 mM HEPES and 0.05 mM of […]. Freshly isolated or cryopreserved KCs cells are seeded in flat-bottom 96-well plates at 0.6-1.5×10^5 cells/well and incubated overnight at 37° C., 5% CO2 in RPMI 1640 Medium with GlutaMAX supplement, FBS, 1% Penicillin/Streptomycin and 10 mM HEPES. The following day, the cells are primed with 100 ng/mL of lipopolysaccharides (LPS; Sigma Aldrich) in FBS-free RPMI 1640 for 3 h. After the priming step, the media is removed and PBMCs are pre-incubated with serial concentrations of test compounds (0.00017-10 uM) or vehicle (DMSO) for 30 min in FBS-free media prior to addition of the NLRP3 activator. Cells are then stimulated with 10 μM Nigericin (Sigma Aldrich; InvivoGen) for 1.5 h. Plates were centrifuged at 1,500 rpm for 3 minutes to pellet cells and supernatant was transferred into new plates for subsequent experiments.
For ELISA assays cells are seeded into 96-well plates. Post study, supernatants are removed and the levels of mature IL-1β, IL18 and TNFα (Quantikine ELISA, R&D systems) are measured in cell conditioned media by ELISA according to manufacturer's instructions.
Human frozen PBMCs were purchased from StemCells Technologies. Cells were rapidly thawed in 37° C. water bath and resuspended in fresh assay media consisting of RPMI 1640 Medium containing 1% sodium pyruvate, 10 mM HEPES, 2.5 g/L glucose and 55 μM 2-Mercaptoethanol. Cell density was adjusted to 8.1×10^5 cells/mL. Cells were primed by adding lipopolysaccharide (Invivogen Ultrapure lipopolysaccharide from E. coli, tlrl-3pelps) at a final concentration of 100 ng/mL in cell suspension. 37 μL of cell suspension with LPS was seeded per well of a 384 well plate and incubated for 3 hours at 37° C. and 5% CO2. After priming, PBMCs were preincubated with serially diluted test compounds with starting concentration of 40 μM followed by 2-fold dilution for a 20-point curve or vehicle (DMSO) for 30 min in assay media at 37° C. and 5% CO2. Cells were then stimulated with 10 μM nigericin (Invivogen, tlrl-nig-5) for 90 min at 37° C. and 5% CO2 to activate NLRP3 dependent inflammasome pathway and IL-1β release in cell culture supernatant. Cells were centrifuged at 1200 RPM for 1 min and 40 μL of supernatant was transferred into fresh plates and stored at −80° C. until IL-1β analysis.
16 μL of supernatant was added to white 384 well HTRF plates, followed by addition of 4 μL of HTRF cocktail in each well. Plates were quickly centrifuged, sealed and incubated overnight at room temperature. Next day, HTRF signal was read on a Pherastar and ratio of 665/620 was calculated based on manufacturer's protocol to obtain concentration of IL-1β in cell culture supernatant.

THP-1 ASC-GFP cells = assay: THP-1 ASC-GFP speck assay (NLRP3 inflammasome activation, nigericin); format: cell-based; conditions: THP1-ASC-GFP; PMA-differentiated, LPS primed, 10 μM nigericin
Method: THP-1 ASC-GFP cell line was purchased from Invivogen, San Diego, for infammasome activation assay. THP-1 ASC-GFP cells stably express a 37.6 kDa ASC::GFP fusion protein that enables monitoring of spec formation by microscopy after activation of NLRP3 dependent inflammasome pathway. Cells were maintained at a density of 600,000 cells/mL in growth media consisting of RPMI 1640, 2 mM L-glutamine, 25 mM HEPES and 10% heat inactivated fetal bovine serum at 37° C. and 5% CO2. Cells were passaged every 3-4 days and used for assays for up to 20 passages.
THP-1 ASC-GFP cells were collected by centrifuging cells at 800 RPM for 5 minutes. Cell culture supernatant was removed and cells were re-suspended in fresh media at density of 1×10^6 cells/mL in assay media consisting of RPMI 1640, 2 mM L-glutamine, 25 mM HEPES and 10% heat inactivated fetal bovine serum. Phorbol 12-myristate 13-acetate (PMA) (Invivogen,tlrl-pma) was added to the cell suspension at a final concentration of 500 ng/ml and mixed thoroughly. 40,000 cells were added per well of a 384 well plate and differentiated into macrophages overnight at 37° C. and 5% CO2. Cells were primed with 1 μg/mL of lipopolysaccharide (Invivogen Ultrapure lipopolysaccharide from E. coli, tlrl-3pelps) in assay media for 3 hours at 37° C. and 5% CO2. After priming, media was removed and THP-1 ASC-GFP cells were preincubated with serially diluted test compounds with starting concentration of 40 μM followed by 2-fold dilution for a 20-point curve or vehicle (DMSO) for 30 min in assay media at 37° C. and 5% CO2. Cells were then stimulated with 10 μM nigericin (Invivogen, tlrl-nig-5) for 90 min at 37° C. and 5% CO2 to activate NLRP3 dependent inflammasome pathway and spec formation. After stimulation, cells were fixed with 4.8% paraformaldehyde (Electron Microscopy Sciences #15710-S) and incubated at room temperature for 15 min. Cells were then washed 3-times with 100 μL of phosphate buffered saline and permeabilized in the presence of premeablization/block buffer for 20 min at room temperature. Cells were then washed 3-times with 100 μL phosphate buffered saline and incubated for 1 hr at room temperature in the presence of hoechst. After staining with Hoechst, cells were washed 3-times with 100 μL phosphate buffered saline and imaged for ASC spec formation.
THP-1 ASC-GFP cells were imaged in 488 and Hoechst channels. Hoechst channel was used for cell count and 488 channel was used to identify number of GFP ASC specks in imaged fields. Percentage of cells with a spec was calculated by dividing the number of GFP positive spots by total number of cells.

PBMCs = assay: CTG (CellTiter-Glo) viability assay of compound-treated LPS and nigericin stimulated PBMCs; format: cell-based, human; conditions: Homo sapiens, PBMC; read-out: PMBC CTG IC50
Method: as §1, §2
Viability of compound treated cells is measured using CellTiter-Glo® assay (Promega, Madison, Wis.) that measures the ATP content of cells which is proportional to the number of live cells within a well. This is a counter-screen to establish that the reduction of IL-1β levels in LPS and nigericin stimulated and compound treated cells is not due to cytotoxicity, but rather through the inhibition of the inflammasome pathway. Compounds inhibiting NRLP3 inflammasome activation ultimately increase the viability of LPS and nigericin stimulated cells by blocking NLRP3 mediated pyroptosis that would otherwise lead to cell lysis.

T1 sequence (Q96P20 whole entry): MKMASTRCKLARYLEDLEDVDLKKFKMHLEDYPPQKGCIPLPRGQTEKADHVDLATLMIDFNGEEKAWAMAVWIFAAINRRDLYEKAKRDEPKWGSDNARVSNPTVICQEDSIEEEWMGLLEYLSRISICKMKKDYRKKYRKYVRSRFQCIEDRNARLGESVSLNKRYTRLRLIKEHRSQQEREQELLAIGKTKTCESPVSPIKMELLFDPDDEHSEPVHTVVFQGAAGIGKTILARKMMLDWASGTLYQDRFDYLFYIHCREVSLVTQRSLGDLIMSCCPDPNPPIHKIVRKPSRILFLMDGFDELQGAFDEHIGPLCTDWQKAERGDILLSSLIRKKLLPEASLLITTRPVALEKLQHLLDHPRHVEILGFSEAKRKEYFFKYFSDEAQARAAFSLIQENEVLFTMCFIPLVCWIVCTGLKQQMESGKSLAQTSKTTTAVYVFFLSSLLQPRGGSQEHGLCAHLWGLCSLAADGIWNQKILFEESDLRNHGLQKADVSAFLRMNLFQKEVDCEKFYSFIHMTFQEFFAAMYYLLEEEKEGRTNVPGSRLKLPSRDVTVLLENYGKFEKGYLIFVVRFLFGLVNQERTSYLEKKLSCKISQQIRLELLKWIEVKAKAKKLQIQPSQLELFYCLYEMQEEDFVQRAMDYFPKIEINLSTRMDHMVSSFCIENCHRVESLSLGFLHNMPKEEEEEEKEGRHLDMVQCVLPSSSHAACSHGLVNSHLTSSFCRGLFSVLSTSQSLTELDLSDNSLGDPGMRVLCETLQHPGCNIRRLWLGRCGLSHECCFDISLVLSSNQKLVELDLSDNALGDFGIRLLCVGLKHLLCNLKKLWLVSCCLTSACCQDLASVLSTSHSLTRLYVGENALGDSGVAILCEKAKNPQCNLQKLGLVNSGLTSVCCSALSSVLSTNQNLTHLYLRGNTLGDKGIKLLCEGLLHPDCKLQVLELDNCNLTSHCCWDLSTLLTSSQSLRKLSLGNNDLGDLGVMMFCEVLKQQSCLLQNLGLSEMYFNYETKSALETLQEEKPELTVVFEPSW

pIC50 (NLRP3 inflammasome)	pIC50 (THP-1 ASC-GFP cells)	Compound	pIC50 (PBMCs)	IC50 (NLRP3 inflammasome)
< 5.00	4.92	Cc1cc(C2CC2)nc(NC(=O)NS(=O)(=O)c2cnn3c2OCCC3)n1 [Example 21, N-((4-cyclopropyl-6-methylpyrimidin-2-yl)carbamoyl)-6,7-dihydro-5H-pyrazolo[5,1-b][1,3]oxazine-3-sulfonamide]	–	–
< 5.00	< 4.70	CC(C)(C)c1cc(C(C)(C)C)nc(NC(=O)NS(=O)(=O)c2cnn3c2OCCC3)n1 [Example 22, N-((4,6-di-tert-butylpyrimidin-2-yl)carbamoyl)-6,7-dihydro-5H-pyrazolo[5,1-b][1,3]oxazine-3-sulfonamide]	–	–
< 5.00	< 4.70	O=C(Nc1nc(-c2ccccc2)cc2c1CCC2)NS(=O)(=O)c1cnn2c1OCCC2 [Example 23, N-((3-phenyl-6,7-dihydro-5H-cyclopenta[c]pyridin-1-yl)carbamoyl)-6,7-dihydro-5H-pyrazolo[5,1-b][1,3]oxazine-3-sulfonamide]	–	–
< 5.00	< 4.70	Cc1nc(NC(=O)NS(=O)(=O)c2cnn3c2OCCC3)nc2c1CCCC2 [Example 24, N-((4-methyl-5,6,7,8-tetrahydroquinazolin-2-yl)carbamoyl)-6,7-dihydro-5H-pyrazolo[5,1-b][1,3]oxazine-3-sulfonamide]	–	–
6.07	5.74	COc1cc(C(C)C)c(NC(=O)NS(=O)(=O)c2cnn3c2OCCC3)c(C(C)C)n1 [Example 30, N-((2,4-diisopropyl-6-methoxypyridin-3-yl)carbamoyl)-6,7-dihydro-5H-pyrazolo[5,1-b][1,3]oxazine-3-sulfonamide]	6.14	–
–	5.09	CC(C)c1cc(OC2CC2)nc(C(C)C)c1NC(=O)NS(=O)(=O)c1cnn2c1OCCC2 [Example 81, Sodium N-((6-cyclopropoxy-2,4-diisopropylpyridin-3-yl)carbamoyl)-6,7-dihydro-5H-pyrazolo[5,1-b][1,3]oxazine-3-sulfonamide]	–	–
–	5.85	CC(C)c1cc(C(F)(F)F)nc(C(C)C)c1NC(=O)NS(=O)(=O)c1cnn2c1OCC(C)(C)C2 [Example 82, N-((2,4-diisopropyl-6-(trifluoromethyl)pyridin-3-yl)carbamoyl)-6,6-dimethyl-6,7-dihydro-5H-pyrazolo[5,1-b][1,3]oxazine-3-sulfonamide]	–	–

The next lines start with the molecule.

Compound	pIC50 (NLRP3 inflammasome)	pIC50 (THP-1 ASC-GFP cells)	pIC50 (PBMCs)	IC50 (NLRP3 inflammasome)
COc1cc(C(C)C)c(NC(=O)NS(=O)(=O)c2cnn3c2OCC(CNC(C)=O)C3)c(C(C)C)n1 (racemic) [Example 40, N-((3-(N-((2,4-diisopropyl-6-methoxypyridin-3-yl)carbamoyl)sulfamoyl)-6,7-dihydro-5H-pyrazolo[5,1-b][1,3]oxazin-6-yl)methyl)acetamide]	5.82	6.14	5.90	–
O=C(Nc1nc(Cl)cc(Cl)n1)NS(=O)(=O)c1cnn2c1OCCC2 [Example 4, N-((4,6-dichloropyrimidin-2-yl)carbamoyl)-6,7-dihydro-5H-pyrazolo[5,1-b][1,3]oxazine-3-sulfonamide]	< 5.00	< 4.70	–	–
Cc1onc(-c2ccccc2)c1NC(=O)NS(=O)(=O)c1cnn2c1OCCC2 [Example 8, N-((5-methyl-3-phenylisoxazol-4-yl)carbamoyl)-6,7-dihydro-5H-pyrazolo[5,1-b][1,3]oxazine-3-sulfonamide]	< 5.00	< 4.70	< 5.00	–
CC(C)c1cc(Cl)nc(NC(=O)NS(=O)(=O)c2cnn3c2OCCC3)n1 [Example 16, N-((4-chloro-6-isopropylpyrimidin-2-yl)carbamoyl)-6,7-dihydro-5H-pyrazolo[5,1-b][1,3]oxazine-3-sulfonamide]	< 5.00	< 4.70	–	–
O=C(Nc1nc(-c2ccccc2)cc(C(F)(F)F)n1)NS(=O)(=O)c1cnn2c1OCCC2 [Example 17, N-((4-phenyl-6-(trifluoromethyl)pyrimidin-2-yl)carbamoyl)-6,7-dihydro-5H-pyrazolo[5,1-b][1,3]oxazine-3-sulfonamide]	< 5.00	< 5.01	–	–
COc1cc(OC)nc(NC(=O)NS(=O)(=O)c2cnn3c2OCCC3)n1 [Example 18, N-((4,6-dimethoxypyrimidin-2-yl)carbamoyl)-6,7-dihydro-5H-pyrazolo[5,1-b][1,3]oxazine-3-sulfonamide]	–	< 4.70	–	> 10 µM
COc1cc(C)nc(NC(=O)NS(=O)(=O)c2cnn3c2OCCC3)n1 [Example 19, N-((4-methoxy-6-methylpyrimidin-2-yl)carbamoyl)-6,7-dihydro-5H-pyrazolo[5,1-b][1,3]oxazine-3-sulfonamide]	–	< 4.70	–	> 10 µM
Cc1cc(C)nc(NC(=O)NS(=O)(=O)c2cnn3c2OCCC3)n1 [Example 25, N-((4,6-dimethylpyrimidin-2-yl)carbamoyl)-6,7-dihydro-5H-pyrazolo[5,1-b][1,3]oxazine-3-sulfonamide]	< 5.00	< 4.70	–	–
CC(C)c1nn(C(C)C)c(C(C)C)c1NC(=O)NS(=O)(=O)c1cnn2c1OCCC2 [Example 33, N-((1,3,5-triisopropyl-1H-pyrazol-4-yl)carbamoyl)-6,7-dihydro-5H-pyrazolo[5,1-b][1,3]oxazine-3-sulfonamide]	5.30	5.40	5.35	–

— patent US11560391B2, “Sulfonylurea compounds as inhibitors of interleukin-1 activity” (Genentech, Inc., priority 2018, dated 2023)
